Data: ChEMBL document CHEMBL1201862, “PubChem BioAssay data set” (2004)
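1) Cells in 96-well plates. 2) Compound, 48 h, 5 concentrations. 3) Linear interpolation between surrounding doses. 4) Unreached endpoint = highest concentration. Abbreviation: GI50, concentration required for 50% inhibition of growth.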 Activity calls are given as the source filed them. Rule as the data show it: active = GI50 up to about 1.1 µM and inactive = higher. Non-standard residues stand in square brackets, D forms with d. Residues, ends and D or L forms follow the SMILES beside them. ξ: configuration not given here. *: point of attachment. Cbz = O=C(OCc1ccccc1)*; ξK = NCCCCC(N)C(=O)O

Legend:
Test in all cases: NCI tumour cell line growth inhibition, 48 h
HL-60 = system: HL-60
HOP-92 = system: HOP-92
M14 = system: M14
MDA-N = system: MDA-N
SF-295 = system: SF-295
SF-268 = system: SF-268
SNB-75 = system: SNB-75
SW-620 = system: SW-620
CAKI-1 = system: CAKI-1
TK-10 = system: TK-10
OVCAR-8 = system: OVCAR-8
NCI-H460 = system: NCI-H460
LOX IMVI = system: LOX IMVI
DU-145 = system: DU-145
HT-29 = system: HT-29
OVCAR-5 = system: OVCAR-5
SK-MEL-2 = system: SK-MEL-2
MCF7 = system: MCF7

Measured: GI50

O=c1c2cc([N+](=O)[O-])ccc2n2n1CCCCC2
inactive: HL-60 > 100 µM | HOP-92 > 100 µM | M14 > 100 µM | MDA-N > 100 µM | SF-295 > 100 µM | SF-268 > 100 µM | SNB-75 > 100 µM | SW-620 > 100 µM | CAKI-1 > 100 µM | TK-10 61.8 µM | OVCAR-8 > 100 µM | NCI-H460 > 100 µM | LOX IMVI > 100 µM | DU-145 > 100 µM | HT-29 > 100 µM | OVCAR-5 > 100 µM

COC(=O)NNC(=O)OC.COC(=O)Nc1ccccc1NC(=O)OC.COC(=O)Oc1nn(C(=O)OC)c(=O)c2ccccc12
inactive: HL-60 > 100 µM | M14 > 100 µM | MDA-N > 100 µM | SF-295 > 100 µM | SF-268 > 100 µM | SK-MEL-2 > 100 µM | SNB-75 > 100 µM | SW-620 > 100 µM | CAKI-1 > 100 µM | TK-10 > 100 µM | OVCAR-8 > 100 µM | NCI-H460 > 100 µM | LOX IMVI > 100 µM | DU-145 > 100 µM | HT-29 > 100 µM | MCF7 > 100 µM | OVCAR-5 > 100 µM

CCCC1C(CC)C(NC)C(C#N)(C#N)C1(C#N)C#N (centres undefined)
inactive: HL-60 20.4 µM | HOP-92 14 µM | M14 35.6 µM | MDA-N 16 µM | SF-295 17.2 µM | SF-268 16.5 µM | SK-MEL-2 18.9 µM | SNB-75 10 µM | SW-620 36.8 µM | CAKI-1 11.4 µM | TK-10 16.9 µM | OVCAR-8 20.7 µM | LOX IMVI 16.3 µM | DU-145 14.2 µM | HT-29 13.6 µM | MCF7 23.5 µM | OVCAR-5 33.7 µM

COC12c3ccccc3-c3ccccc3C1[C@@H](C(=O)O)[C@H]2C(=O)O (some centres undefined)
inactive: HL-60 > 10 µM | HOP-92 > 10 µM | M14 > 10 µM | MDA-N > 10 µM | SF-295 > 10 µM | SF-268 > 10 µM | SK-MEL-2 > 10 µM | SNB-75 > 10 µM | SW-620 > 10 µM | CAKI-1 > 10 µM | TK-10 > 10 µM | OVCAR-8 > 10 µM | NCI-H460 > 10 µM | LOX IMVI > 10 µM | DU-145 > 10 µM | HT-29 > 10 µM | MCF7 > 10 µM | OVCAR-5 > 10 µM

N#CCCC(CC#N)N1CCN(CCO)CC1 (centres undefined)
inactive: HL-60 > 100 µM | HOP-92 > 100 µM | M14 > 100 µM | SF-295 > 100 µM | SF-268 > 100 µM | SNB-75 > 100 µM | SW-620 > 100 µM | TK-10 > 100 µM | OVCAR-8 > 100 µM | NCI-H460 > 100 µM | DU-145 > 100 µM | HT-29 > 100 µM | MCF7 > 100 µM | OVCAR-5 > 100 µM

Nc1cc2c3c(cccc3c1)NC2=O
inactive: HL-60 > 100 µM | HOP-92 > 100 µM | M14 34.6 µM | MDA-N 68.7 µM | SF-295 > 100 µM | SF-268 11.2 µM | SK-MEL-2 > 100 µM | SNB-75 14.6 µM | SW-620 82.4 µM | CAKI-1 24.6 µM | TK-10 > 100 µM | OVCAR-8 > 100 µM | NCI-H460 8.39 µM | LOX IMVI 51.4 µM | DU-145 > 100 µM | HT-29 > 100 µM | MCF7 27.9 µM | OVCAR-5 > 100 µM

O=C1NCC2(CCN(CCCC3(c4ccc(F)cc4)OCCO3)CC2)N1c1ccccc1
inactive: HL-60 > 100 µM | HOP-92 36.7 µM | M14 > 100 µM | MDA-N > 100 µM | SF-295 > 100 µM | SF-268 > 100 µM | SK-MEL-2 > 100 µM | SNB-75 66.5 µM | SW-620 32.7 µM | CAKI-1 50.1 µM | TK-10 > 100 µM | OVCAR-8 > 100 µM | NCI-H460 > 100 µM | LOX IMVI > 100 µM | DU-145 > 100 µM | HT-29 84.5 µM | OVCAR-5 > 100 µM

COc1ccc(Nc2nc3c([nH]2)c(=O)n(C)c(=O)n3C)cc1
inactive: HL-60 > 10 µM | HOP-92 > 10 µM | M14 > 10 µM | MDA-N > 10 µM | SF-295 > 10 µM | SF-268 > 10 µM | SNB-75 > 10 µM | SW-620 > 10 µM | CAKI-1 > 10 µM | TK-10 > 10 µM | OVCAR-8 > 10 µM | LOX IMVI > 10 µM | DU-145 > 10 µM | HT-29 > 10 µM | MCF7 > 10 µM

CC(C)[C@@H]1CC[C@@H](C)C[C@H]1OC(=O)/C=C1/C2C=CC(O2)C1C(=O)O[C@@H]1C[C@H](C)CC[C@H]1C(C)C (some centres undefined)
inactive: HL-60 30.5 µM | HOP-92 > 100 µM | M14 > 100 µM | MDA-N > 100 µM | SF-295 65.3 µM | SF-268 > 100 µM | SNB-75 > 100 µM | SW-620 > 100 µM | CAKI-1 > 100 µM | TK-10 > 100 µM | OVCAR-8 > 100 µM | NCI-H460 89.1 µM | LOX IMVI > 100 µM | DU-145 > 100 µM | HT-29 48.5 µM | MCF7 97.5 µM | OVCAR-5 > 100 µM

O=C(O)CCC(NC(=O)c1ccc(CNc2nc3cc(C(F)(F)F)ccc3nc2C(=O)O)cc1)C(=O)O (centres undefined)
inactive: HL-60 > 100 µM | HOP-92 > 100 µM | M14 > 100 µM | MDA-N > 100 µM | SF-295 > 100 µM | SF-268 > 100 µM | SK-MEL-2 > 100 µM | SNB-75 > 100 µM | SW-620 > 100 µM | CAKI-1 > 100 µM | TK-10 > 100 µM | OVCAR-8 > 100 µM | NCI-H460 > 100 µM | LOX IMVI > 100 µM | DU-145 > 100 µM | HT-29 > 100 µM | OVCAR-5 > 100 µM

NCCCCC(NC(=O)OCc1ccccc1)C(=O)NCC(N)=O (centres undefined) (Cbz-[ξK]-Gly-NH2)
inactive: HOP-92 > 100 µM | M14 > 100 µM | MDA-N > 100 µM | SF-295 > 100 µM | SF-268 > 100 µM | SK-MEL-2 > 100 µM | SNB-75 > 100 µM | SW-620 > 100 µM | CAKI-1 > 100 µM | OVCAR-8 > 100 µM | NCI-H460 > 100 µM | LOX IMVI > 100 µM | DU-145 > 100 µM | HT-29 > 100 µM | MCF7 > 100 µM | OVCAR-5 > 100 µM

CC(C)(C)OC(=O)n1cc(C2CNC(=O)C23CCC(=O)N3Cc2ccccc2)c2ccccc21 (centres undefined)
inactive: HL-60 28.1 µM | HOP-92 10.9 µM | M14 27.4 µM | MDA-N 28.2 µM | SF-295 17.7 µM | SF-268 31.6 µM | SK-MEL-2 17.2 µM | SNB-75 18.1 µM | SW-620 33.5 µM | CAKI-1 36.9 µM | TK-10 17.1 µM | NCI-H460 20.7 µM | LOX IMVI 19.8 µM | DU-145 20.4 µM | HT-29 19.1 µM | MCF7 27.9 µM | OVCAR-5 19.5 µM
